Assay [1] deals with control Gram-negative E. coli 25922 strain. Kind of assay: Antibacterial activity, microbroth dilution MIC, E. coli 25922. In kind it is cell-based, Escherichia coli. The settings on record: Escherichia coli; E. coli 25922, microbroth dilution; read-out: MIC, 25922. Background: Dilution methods test growth across graded concentrations, often in twofold steps.
In assay [2] the test system is Moraxella catarrhalis (M. catarrhalis) 25238. The assay is described as follows: Antibacterial activity, MIC, M. catarrhalis 25238. In kind it is cell-based. The conditions noted are these: Moraxella catarrhalis, M. catarrhalis 25238; read-out: MIC 25238.
Assay [3] relates to Pseudomonas aeruginosa (P. aeruginosa) 27853. The assay is described as follows: Antibacterial activity, MIC, P. aeruginosa 27853. The class given is cell-based. The conditions noted are these: Pseudomonas aeruginosa, P. aeruginosa 27853; read-out: MIC 27853. An excerpt: (§1) The antibacterial activity from a microbroth dilution method may be presented as the minimum inhibitory concentration (MIC in […]). The MIC value is the lowest concentration of a drug which prevents macroscopically visible bacterial growth under test conditions.
Antibacterial activity of test compounds against the Gram-negative bacterium Pseudomonas aeruginosa (P. aeruginosa) 27853 is shown in Table 5.

The test system of assay [4] is Neisseria meningitidis (N. meningitidis) 13090. The assay is described as follows: Antibacterial activity, MIC, N. meningitidis 13090. The class given is cell-based. The settings on record: Neisseria meningitidis; N. meningitidis 13090; read-out: MIC 13090.
In assay [5] the test system is Gram-positive Staphylococcus aureus (S. aureus) 29213. Kind of assay: Antibacterial activity, microbroth dilution MIC, S. aureus 29213. The class given is cell-based. The settings on record: Staphylococcus aureus; S. aureus 29213, microbroth dilution; read-out: MIC, 29213.
In assay [6] the test system is Haemophilus influenzae (H. influenzae) 49247. The assay is described as follows: Antibacterial activity, MIC, H. influenzae 49247. The class given is cell-based. The conditions noted are these: Haemophilus influenzae; H. influenzae 49247; read-out: MIC 49247. In a few lines: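 A microbroth dilution method gave the minimum inhibitory concentration for each compound against H. influenzae 49247, a Gram-negative bacterium. MIC means the smallest concentration of drug at which no macroscopically visible bacterial growth appears under the conditions of the test.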

In assay [7] the test system is super sensitive Gram-negative Escherichia coli (E. coli) BAS849. Kind of assay: Antibacterial activity, microbroth dilution MIC, E. coli BAS849. The class given is cell-based. The conditions noted are these: Escherichia coli, read-out: MIC, BAS849.
Assay [8] deals with E. coli ELZ4000 (MDR clinical isolate). Kind of assay: Antibacterial activity, MIC, MDR E. coli ELZ4000. In kind it is cell-based, Escherichia coli. The conditions noted are these: Escherichia coli; E. coli ELZ4000, MDR clinical isolate; read-out: MIC ELZ4000.
Assay [9] relates to E. coli ELZ4251 (MDR clinical isolate). The assay is described as follows: Antibacterial activity, MIC, MDR E. coli ELZ4251. The class given is cell-based, Escherichia coli. The settings on record: Escherichia coli, E. coli ELZ4251, MDR clinical isolate; read-out: MIC ELZ4251.
Assay [10] relates to quinolone resistant E. coli LZ3111. The assay is described as follows: Antibacterial activity, MIC, quinolone resistant E. coli LZ3111. In kind it is cell-based, Escherichia coli. The settings on record: Escherichia coli, read-out: MIC, LZ3111.
From the text: as §1
Mutations in these regions are known to confer a high level resistance to the quinolone class of antibiotics.

Where [11] appears, read: E. coli BAS849, microbroth dilution.

Structures are written as SMILES. ≈ marks a conversion by molar mass, not a printed value. Where two headings read alike, the source gives them in different places. Some results are limits rather than exact numbers.

`CCc1c(-c2ccc(N3CCCC3=O)cc2)[nH]c(=O)c(C(=O)O)c1O` [Cpd 115, 5-ethyl-4-hydroxy-2-oxo-6-[4-(2-oxopyrrolidin-1-yl)phenyl]-1,2-dihydropyridine-3-carboxylic acid]: the MIC in [1] was 3.5 to 12.5 µg/mL (≈ 10.2 to 36.5 µM); in assay [2], less than 1 µg/mL; in [3], 12.5 to 150 µg/mL (≈ 36.5 to 438 µM); in [4], less than 1 µg/mL; in assay [5], 12.5 to 150 µg/mL (≈ 36.5 to 438 µM); in assay [6], less than 1 µg/mL. Further, the MIC in [7] (setting [11]) is less than 1 µg/mL; in assay [8] it was 12.5 to 150 µg/mL (≈ 36.5 to 438 µM); in assay [9] it was 12.5 to 150 µg/mL (≈ 36.5 to 438 µM); in assay [10], 12.5 to 150 µg/mL (≈ 36.5 to 438 µM).
For the molecule `CCc1cc(C(=O)O)c(=O)[nH]c1-c1ccc(N2CCC(O)C2)cc1` (stereo not shown) [Cpd 123, 5-ethyl-6-[4-(3-hydroxypyrrolidin-1-yl)phenyl]-2-oxo-1,2-dihydropyridine-3-carboxylic acid], the MIC is less than 1 µg/mL in assay [1]; less than 1 µg/mL in [2]; 3.5 to 12.5 µg/mL (≈ 10.7 to 38.1 µM) in assay [3]; less than 1 µg/mL in [4]; 3.5 to 12.5 µg/mL (≈ 10.7 to 38.1 µM) in [5]; less than 1 µg/mL in [6]. Also, the MIC in assay [7] (setting [11]) was less than 1 µg/mL; in [8] it was 12.5 to 150 µg/mL (≈ 38.1 to 457 µM); in assay [9] it was 12.5 to 150 µg/mL (≈ 38.1 to 457 µM); in assay [10] it was 12.5 to 150 µg/mL (≈ 38.1 to 457 µM).
Take `CCc1cc(C(=O)O)c(=O)[nH]c1-c1ccc(N2CCC(OCc3ccccc3)C2)cc1` (stereo not shown) [Cpd 128, 6-{4-[3-(benzyloxy)pyrrolidin-1-yl]phenyl}-5-ethyl-2-oxo-1,2-dihydropyridine-3-carboxylic acid]: the MIC was 12.5 to 150 µg/mL (≈ 29.9 to 358 µM) in assay [1]; less than 1 µg/mL in assay [2]; 12.5 to 150 µg/mL (≈ 29.9 to 358 µM) in [3]; less than 1 µg/mL in assay [4]; 1 to 3.5 µg/mL (≈ 2.39 to 8.36 µM) in assay [5]; 1 to 3.5 µg/mL (≈ 2.39 to 8.36 µM) in assay [6]. Also, the MIC was less than 1 µg/mL in [7] (setting [11]), 12.5 to 150 µg/mL (≈ 29.9 to 358 µM) in assay [8], 12.5 to 150 µg/mL (≈ 29.9 to 358 µM) in [9] and 12.5 to 150 µg/mL (≈ 29.9 to 358 µM) in [10].
On to `CCc1cc(C(=O)O)c(=O)[nH]c1-c1ccc(N2CCC(N3CCOCC3)C2)cc1.O=C(O)C(F)(F)F` (stereo not shown) [Cpd 140, 5-ethyl-6-{4-[3-(morpholin-4-yl)pyrrolidin-1-yl]phenyl}-2-oxo-1,2-dihydropyridine-3-carboxylic acid trifluoroacetate], for which the MIC in assay [1] is 3.5 to 12.5 µg/mL; in [2], less than 1 µg/mL; in [3], 12.5 to 150 µg/mL; in [4], less than 1 µg/mL; in assay [5] it was 12.5 to 150 µg/mL; in [6], less than 1 µg/mL. The MIC in [7] is less than 1 µg/mL; in assay [8], 12.5 to 150 µg/mL; in [9], 12.5 to 150 µg/mL; in [10], 12.5 to 150 µg/mL.
As to `CCc1cc(C(=O)O)c(=O)[nH]c1-c1ccc(N2CCC[C@@H]2C(F)(F)F)cc1` [Cpd 141, 5-ethyl-2-oxo-6-{4-[(2R)-2-(trifluoromethyl)pyrrolidin-1-yl]phenyl}-1,2-dihydropyridine-3-carboxylic acid], the MIC in [1] was 12.5 to 150 µg/mL (≈ 32.9 to 394 µM); in [2] it was less than 1 µg/mL; in assay [3] it was 12.5 to 150 µg/mL (≈ 32.9 to 394 µM); in assay [4], less than 1 µg/mL; in assay [5] it was 3.5 to 12.5 µg/mL (≈ 9.2 to 32.9 µM); in assay [6], less than 1 µg/mL. In addition, the MIC in assay [7] (setting [11]) was less than 1 µg/mL; in [8], 12.5 to 150 µg/mL (≈ 32.9 to 394 µM); in assay [9] it was 12.5 to 150 µg/mL (≈ 32.9 to 394 µM); in assay [10], 12.5 to 150 µg/mL (≈ 32.9 to 394 µM).
Turning to `CCc1cc(C(=O)O)c(=O)[nH]c1-c1ccc(N2CCC(F)(F)C2)cc1` [Cpd 144, 6-[4-(3,3-difluoropyrrolidin-1-yl)phenyl]-5-ethyl-2-oxo-1,2-dihydropyridine-3-carboxylic acid], the MIC in assay [1] was 1 to 3.5 µg/mL (≈ 2.87 to 10 µM); in assay [2], less than 1 µg/mL; in assay [3] it was 12.5 to 150 µg/mL (≈ 35.9 to 431 µM); in assay [4], less than 1 µg/mL; in [5] it was 3.5 to 12.5 µg/mL (≈ 10 to 35.9 µM); in assay [6], less than 1 µg/mL. Besides, the MIC in assay [7] (setting [11]) is less than 1 µg/mL; in [8], 12.5 to 150 µg/mL (≈ 35.9 to 431 µM); in assay [9], 12.5 to 150 µg/mL (≈ 35.9 to 431 µM); in [10] it was 12.5 to 150 µg/mL (≈ 35.9 to 431 µM).
With `CCc1cc(C(=O)O)c(=O)[nH]c1-c1ccc(N2CCC[C@@H]2COC)cc1` [Cpd 147, 5-ethyl-6-{4-[(2R)-2-(methoxymethyl)pyrrolidin-1-yl]phenyl}-2-oxo-1,2-dihydropyridine-3-carboxylic acid], the MIC in assay [1] was 3.5 to 12.5 µg/mL (≈ 9.82 to 35.1 µM); in [2], less than 1 µg/mL; in [3], 12.5 to 150 µg/mL (≈ 35.1 to 421 µM); in assay [4] it was less than 1 µg/mL; in assay [5], 3.5 to 12.5 µg/mL (≈ 9.82 to 35.1 µM); in [6], less than 1 µg/mL. Also, the MIC in assay [7] (setting [11]) was less than 1 µg/mL; in assay [8], 12.5 to 150 µg/mL (≈ 35.1 to 421 µM); in assay [9], 12.5 to 150 µg/mL (≈ 35.1 to 421 µM); in assay [10], 12.5 to 150 µg/mL (≈ 35.1 to 421 µM).
